Patent US20240343694A1, “PYRIMIDINE DERIVATIVE, METHOD FOR PREPARING SAME, AND PHARMACEUTICAL COMPOSITION FOR PREVENTING OR TREATING CANCER COMPRISING SAME AS ACTIVE INGREDIENT” (KOREA RESERARCH INSTITUTE OF CHEMICAL TECHNOLOGY, priority 2021, published 2024)

Columns and labels:
[1] = target: EGFR del19 (Homo sapiens (Human), UniProt P00533, DEL746-750); experiment: HTRF inhibitory activity against EGFR mutant enzyme (EGFR del19); assay type: biochemical; conditions: recombinant enzyme, 37° C. for 2 hours
Procedure, shortened: (§1)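 Recombinant EGFR del19 or A763_Y764insFHEA was premixed with compound in 50 mM Tris pH 7.5 with 7.5 mM MgCl2 and 1 mM DTT. ATP (50 mM as printed) and biotin-peptide (0.5 mM) were added and reacted 2 h at 37 °C. The HTRF 665/615 read used streptavidin-XL665 and Eu anti-phosphotyrosine. IC50 was fitted from 7 concentrations.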

[2] = target: EGFR A763_Y764insFHEA (Homo sapiens (Human), UniProt P00533, INS763FHEA); experiment: HTRF inhibitory activity against EGFR mutant enzyme (EGFR A763_Y764insFHEA); assay type: biochemical; conditions: recombinant enzyme, 37° C. for 2 hours
Procedure, shortened: as §1

[3] = target: HER2 A775_G776insYVMA (Homo sapiens (Human), UniProt P04626, INS775YVMA); experiment: HTRF inhibitory activity against HER2 mutant enzyme; assay type: biochemical; conditions: recombinant enzyme, 37° C. for 2 hours
Procedure, shortened: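 Recombinant HER2 A775_G776insYVMA preincubated with compound, then […] and biotinylated peptide ([…]) added; 2 h at 37 °C in Tris-HCl pH 7.5 buffer with MgCl2, DTT. HTRF detection (Eu anti-phosphotyrosine/streptavidin-XL665); IC50 from 7 concentrations.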

[4] = tested on: Ba/F3 EGFR D770_N771insSVD; experiment: Growth inhibition of Ba/F3 EGFR mutant cells (CellTiter-Glo); assay type: cell-based; conditions: Ba/F3 EGFR-D770-N771ins_SVD, 72 hours
Procedure, shortened: (§2)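 Ba/F3 cells expressing either EGFR insertion mutant were seeded at 1,000 cells/well and dosed 24 h later at eight concentrations from 0 to 10 μM. After 72 h, viability was read by CellTiter-Glo ATP signal. IC50 (μM) was fitted from the eight-point curves.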

[5] = tested on: Ba/F3 EGFR V769_D770insASV; experiment: as above; assay type: cell-based; conditions: 72 hours
Procedure, shortened: as §2

[6] = tested on: Ba/F3 HER2 A775_G776insYVMA; experiment: Growth inhibition of Ba/F3 HER2 mutant cells (CellTiter-Glo); assay type: cell-based; conditions: Mus musculus, BaF3, 72 hours
Procedure, shortened: (§3)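 Ba/F3 cells carrying HER2 A775_G776insYVMA or G776delinsVC were seeded at 1,000 cells/well and dosed 24 h later at 0.01-10 μM (8 concentrations including 0). After 72 h, viability was read as cellular ATP by CellTiter-Glo luminescence, and IC50 values were calculated from the 8-point curves.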

[7] = tested on: Ba/F3 HER2 G776delinsVC; experiment: as above; assay type: cell-based; conditions: Mus musculus, BaF3, 72 hours
Procedure, shortened: as §3

Chain of EGFR del19 (P00533 other isoform, or with tags, fused parts or gaps del 1-668/del 746-750 limits assumed): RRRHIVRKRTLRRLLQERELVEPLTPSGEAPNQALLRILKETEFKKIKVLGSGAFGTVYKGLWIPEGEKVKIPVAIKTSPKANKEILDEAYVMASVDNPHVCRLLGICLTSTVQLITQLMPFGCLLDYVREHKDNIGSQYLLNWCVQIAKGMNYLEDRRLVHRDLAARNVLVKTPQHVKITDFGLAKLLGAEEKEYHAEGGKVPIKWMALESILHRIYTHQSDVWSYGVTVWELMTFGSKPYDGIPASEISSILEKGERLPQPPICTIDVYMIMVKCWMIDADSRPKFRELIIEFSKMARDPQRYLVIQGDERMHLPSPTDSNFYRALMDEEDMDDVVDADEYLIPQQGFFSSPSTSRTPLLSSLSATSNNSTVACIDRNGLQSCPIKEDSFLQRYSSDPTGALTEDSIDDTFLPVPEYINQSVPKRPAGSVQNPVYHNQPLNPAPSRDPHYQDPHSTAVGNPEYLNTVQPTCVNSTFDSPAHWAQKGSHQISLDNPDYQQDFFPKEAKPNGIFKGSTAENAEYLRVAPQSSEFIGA
Chain of HER2 A775_G776insYVMA (P04626 other isoform, or with tags, fused parts or gaps del 1-675/ins YVMA behind 775 limits assumed): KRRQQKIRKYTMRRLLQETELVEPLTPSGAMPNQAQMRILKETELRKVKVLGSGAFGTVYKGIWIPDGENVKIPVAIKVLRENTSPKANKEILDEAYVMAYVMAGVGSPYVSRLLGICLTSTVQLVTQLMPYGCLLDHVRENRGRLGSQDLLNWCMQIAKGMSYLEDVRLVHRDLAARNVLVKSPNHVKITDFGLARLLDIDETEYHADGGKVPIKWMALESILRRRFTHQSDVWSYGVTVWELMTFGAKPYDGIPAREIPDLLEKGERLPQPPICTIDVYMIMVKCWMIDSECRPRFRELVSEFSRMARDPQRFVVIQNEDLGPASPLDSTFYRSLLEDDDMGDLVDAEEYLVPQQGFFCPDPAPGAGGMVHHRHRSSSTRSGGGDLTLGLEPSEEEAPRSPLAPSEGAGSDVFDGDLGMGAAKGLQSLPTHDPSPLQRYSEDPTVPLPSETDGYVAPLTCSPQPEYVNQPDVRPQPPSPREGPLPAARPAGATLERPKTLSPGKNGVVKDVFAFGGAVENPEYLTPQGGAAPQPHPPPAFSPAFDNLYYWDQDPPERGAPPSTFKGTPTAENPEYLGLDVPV
Chain of EGFR A763_Y764insFHEA (P00533 other isoform, or with tags, fused parts or gaps del 1-694/ins FHEA behind 763 limits assumed): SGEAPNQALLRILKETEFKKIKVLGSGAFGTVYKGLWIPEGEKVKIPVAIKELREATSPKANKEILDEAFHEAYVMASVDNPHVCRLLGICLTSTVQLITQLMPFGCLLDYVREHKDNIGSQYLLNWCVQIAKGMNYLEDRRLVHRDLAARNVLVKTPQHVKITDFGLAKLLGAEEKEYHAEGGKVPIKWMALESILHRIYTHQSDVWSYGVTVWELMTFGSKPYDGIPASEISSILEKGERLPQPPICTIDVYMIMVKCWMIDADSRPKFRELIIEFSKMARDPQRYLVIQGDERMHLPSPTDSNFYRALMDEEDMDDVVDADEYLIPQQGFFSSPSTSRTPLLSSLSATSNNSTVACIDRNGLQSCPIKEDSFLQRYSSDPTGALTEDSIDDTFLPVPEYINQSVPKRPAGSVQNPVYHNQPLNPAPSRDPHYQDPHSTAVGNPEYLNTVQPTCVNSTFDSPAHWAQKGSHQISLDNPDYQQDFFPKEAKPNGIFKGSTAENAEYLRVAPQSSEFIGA

Compound | IC50 [1] | IC50 [2] | IC50 [3] | IC50 [4] | IC50 [5] | IC50 [6] | IC50 [7]
C=CC(=O)Nc1cc(Nc2ncc(Cl)c(Nc3cccc4c3N(S(C)(=O)=O)CC4)n2)c(OC)cc1N(C)CCNC [Example 57, N-(5-((5-chloro-4-((1-(methylsulfonyl)indolin-7-yl)amino)pyrimidin-2-yl)amino)-4-methoxy-2-(methyl(2-(methylamino)ethyl)amino)phenyl)acrylamide] | < 1 nM | < 1 nM | < 1 nM | 50 to 100 nM | 50 to 100 nM | 50 to 100 nM | 50 to 100 nM
C=CC(=O)Nc1cc(Nc2ncc(Cl)c(Nc3cccc4c3N(S(C)(=O)=O)CC4)n2)c(OC)cc1N1CCC(N(C)C)CC1 [Example 58, N-(5-((5-chloro-4-((1-(methylsulfonyl)indolin-7-yl)amino)pyrimidin-2-yl)amino)-2-(4-(dimethylamino)piperidin-1-yl)-4-methoxyphenyl)acrylamide] | < 1 nM | 10 nM | 90 nM | 50 to 100 nM | 50 to 100 nM | 50 to 100 nM | < 10 nM
C=CC(=O)Nc1cc(Nc2ncc(Cl)c(Nc3cccc4c3N(S(C)(=O)=O)CC4)n2)c(OC)cc1N1CCC(N2CCN(C)CC2)CC1 [Example 59, N-(5-((5-chloro-4-((1-(methylsulfonyl)indolin-7-yl)amino)pyrimidin-2-yl)amino)-4-methoxy-2-(4-(4-methylpiperazin-1-yl)piperidin-1-yl)phenyl)acrylamide] | < 1 nM | < 1 nM | 20 nM | 50 to 100 nM | 50 to 100 nM | 50 to 100 nM | 50 to 100 nM
C=CC(=O)Nc1cc(Nc2ncc(Cl)c(Nc3ccc(C)c(C)c3N(C)C(C)=O)n2)c(OC)cc1N(C)CCN(C)C [Example 83, N-(5-((5-chloro-4-((3,4-dimethyl-2-(N-methylacetamido)phenyl)amino)pyrimidin-2-yl)amino)-2-((2-(dimethylamino)ethyl)(methyl)amino)-4-methoxyphenyl)acrylamide] | 3 nM | 19 nM | 374 nM | 30 to 50 nM | 30 to 50 nM | > 100 nM | < 10 nM
C=CC(=O)Nc1cc(Nc2ncc(Cl)c(Nc3ccc(C)c(C)c3NC(C)=O)n2)c(OC)cc1N(C)CCN(C)C [Example 84, N-(5-((4-((2-acetamido-3,4-dimethylphenyl)amino)-5-chloropyrimidin-2-yl)amino)-2-((2-(dimethylamino)ethyl)(methyl)amino)-4-methoxyphenyl)acrylamide] | 1 nM | 3 nM | 52 nM | 30 to 50 nM | 30 to 50 nM | > 100 nM | < 10 nM
C=CC(=O)Nc1cc(Nc2ncc(Cl)c(Nc3cccc(C)c3N(C)C(C)=O)n2)c(OC)cc1N(C)CCN(C)C [Example 85, N-(5-((5-chloro-4-((3-methyl-2-(N-methylacetamido)phenyl)amino)pyrimidin-2-yl)amino)-2-((2-(dimethylamino)ethyl)(methyl)amino)-4-methoxyphenyl)acrylamide] | 18 nM | 43 nM | 871 nM | 30 to 50 nM | 30 to 50 nM | > 100 nM | 10 to 30 nM
C=CC(=O)Nc1cc(Nc2ncc(Cl)c(Nc3cccc(C)c3NC(C)=O)n2)c(OC)cc1N(C)CCN(C)C [Example 86, N-(5-((4-((2-acetamido-3-methylphenyl)amino)-5-chloropyrimidin-2-yl)amino)-2-((2-(dimethylamino)ethyl)(methyl)amino)-4-methoxyphenyl)acrylamide] | 2 nM | 20 nM | 157 nM | 30 to 50 nM | 30 to 50 nM | > 100 nM | < 10 nM
C=CC(=O)Nc1cc(Nc2ncc(Cl)c(Nc3ccc(C)cc3N(C)C(C)=O)n2)c(OC)cc1N(C)CCN(C)C [Example 87, N-(5-((5-chloro-4-((4-methyl-2-(N-methylacetamido)phenyl)amino)pyrimidin-2-yl)amino)-2-((2-(dimethylamino)ethyl)(methyl)amino)-4-methoxyphenyl)acrylamide] | 4 nM | 24 nM | 107 nM | 30 to 50 nM | 30 to 50 nM | > 100 nM | < 10 nM
C=CC(=O)Nc1cc(Nc2ncc(Cl)c(Nc3ccc(C)cc3NC(C)=O)n2)c(OC)cc1N(C)CCN(C)C [Example 88, N-(5-((4-((2-acetamido-4-methylphenyl)amino)-5-chloropyrimidin-2-yl)amino)-2-((2-(dimethylamino)ethyl)(methyl)amino)-4-methoxyphenyl)acrylamide] | < 1 nM | 2 nM | 14 nM | 10 to 30 nM | 10 to 30 nM | 30 to 50 nM | < 10 nM
C=CC(=O)Nc1cc(Nc2ncc(Cl)c(Nc3ccccc3N(C)C(C)=O)n2)c(OC)cc1N(C)CCN(C)C [Example 89, N-(5-((5-chloro-4-((2-(N-methylacetamido)phenyl)amino)pyrimidin-2-yl)amino)-2-((2-(dimethylamino)ethyl)(methyl)amino)-4-methoxyphenyl)acrylamide] | 20 nM | 77 nM | 479 nM | 30 to 50 nM | 30 to 50 nM | > 100 nM | 10 to 30 nM
C=CC(=O)Nc1cc(Nc2ncc(Cl)c(Nc3ccccc3NC(C)=O)n2)c(OC)cc1N(C)CCN(C)C [Example 90, N-(5-((4-((2-acetamidophenyl)amino)-5-chloropyrimidin-2-yl)amino)-2-((2-(dimethylamino)ethyl)(methyl)amino)-4-methoxyphenyl)acrylamide] | 1 nM | 7 nM | 37 nM | 30 to 50 nM | 30 to 50 nM | > 100 nM | < 10 nM
C=CC(=O)Nc1cc(Nc2ncc(Cl)c(Nc3cccc4c3N(C(C)=O)CC4)n2)c(OC)cc1N(C)CCN(C)C [Example 91, N-(5-((4-((1-acetylindolin-7-yl)amino)-5-chloropyrimidin-2-yl)amino)-2-((2-(dimethylamino)ethyl)(methyl)amino)-4-methoxyphenyl)acrylamide] | < 1 nM | 1 nM | 6 nM | < 10 nM | < 10 nM | < 10 nM | < 10 nM
C=CC(=O)Nc1cc(Nc2ncc(Cl)c(Nc3cccc4c3N(C(C)=O)CC4)n2)c(OC)cc1N(C)CCNC [Example 92, N-(5-((4-((1-acetylindolin-7-yl)amino)-5-chloropyrimidin-2-yl)amino)-4-methoxy-2-(methyl(2-(methylamino)ethyl)amino)phenyl)acrylamide] | < 1 nM | 1 nM | 5 nM | 10 to 30 nM | 10 to 30 nM | 30 to 50 nM | < 10 nM
C=CC(=O)Nc1cc(Nc2ncc(Cl)c(Nc3cccc4c3N(C(=O)CC)CC4)n2)c(OC)cc1N(C)CCN(C)C [Example 93, N-(5-((5-chloro-4-((1-propionylindolin-7-yl)amino)pyrimidin-2-yl)amino)-2-((2-(dimethylamino)ethyl)(methyl)amino)-4-methoxyphenyl)acrylamide] | 1 nM | 2 nM | 11 nM | 10 to 30 nM | 10 to 30 nM | 10 to 30 nM | < 10 nM
C=CC(=O)Nc1cc(Nc2ncc(Cl)c(Nc3cccc4c3N(C(=O)CC)CCC4)n2)c(OC)cc1N(C)CCN(C)C [Example 94, N-(5-((5-chloro-4-((1-propionyl-1,2,3,4-tetrahydroquinolin-8-yl)amino)pyrimidin-2-yl)amino)-2-((2-(dimethylamino)ethyl)(methyl)amino)-4-methoxyphenyl)acrylamide] | 4 nM | 22 nM | 292 nM | 10 to 30 nM | 10 to 30 nM | > 100 nM | < 10 nM
C=CC(=O)Nc1cc(Nc2ncc(Cl)c(Nc3cccc4c3N(C(C)=O)CCC4)n2)c(OC)cc1N(C)CCN(C)C [Example 95, N-(5-((4-((1-acetyl-1,2,3,4-tetrahydroquinolin-8-yl)amino)-5-chloropyrimidin-2-yl)amino)-2-((2-(dimethylamino)ethyl)(methyl)amino)-4-methoxyphenyl)acrylamide] | 2 nM | 11 nM | 54 nM | 10 to 30 nM | 10 to 30 nM | 30 to 50 nM | < 10 nM
